Assay results taken from US11180486B2, “Indolylkojyl methane analogues, process of preparation thereof and use as inhibitor of cancer cells invasion and metastasis” (Council of Scientific & Industrial Research, priority 2017, dated 2021).

What was measured:
T47D cells = experiment: Cell viability (MTT) assay; format: cell-based; settings: Homo sapiens, 48 h, 44 h + 4 h, mean ± SD of three experiments
Protocol: (§1) Cell Culture and Reagents. The cell lines used in this study were procured from American Type Culture Collection (ATCC), Manassas, USA. MCF7, T47D and fR2 cells were cultured in RPMI-1640 medium, whereas the MDA-MB-231 cells were grown in Leibovitz's (L-15) medium supplemented with 10% fetal bovine serum (Gibco) and 1% penicillin/streptomycin (Sigma) in a humidified CO2 incubator (New Brunswick Galaxy 170 R) with 5% CO2. Reagents such as phenylmethylsulfonyl fluoride (PMSF), dithiothreitol (DTT), DMSO, crystal violet, and Bradford's reagent were purchased from Sigma-Aldrich. Protease inhibitor cocktail was procured from Roche. The antibodies for human GRP78, Par-4, MMP-2, MMP-9, NF-kB, E-cadherin and TIMP-1 were procured from Santa-Cruz Biotechnology. The β-actin antibody and the secondary antibodies such as anti-rabbit IgG and anti-mouse IgG were procured from Sigma-Aldrich.
(§2) Cell Viability Assay. The cell viability was determined by standard MTT assay method. Briefly, MDA-MB-231, MCF7, T47D and fR2 cells were seeded in 96 well tissue culture plates (Nunc) at a density of 3×10^3 cells per well and treated with varying concentrations of the test compounds in triplicates. DMSO was taken as a vehicle and the final concentration of the DMSO was maintained at 0.2% in the culture medium. Doxorubicin was employed as a positive control. After 44 h of incubation, MTT dye solution was added into the medium and cells were incubated for another 4 h at 37° C. in 5% CO2. The amount of coloured formazan derivatives formed was measured by taking optical density (OD) using a microplate reader (TECAN, Infinite M200 Pro) at 570 nm and the percentage cell viability was calculated. The IC50 values were calculated using GraphPad Prism software (Version 5.0). Table 2. Cytotoxicity (IC50) of all synthesized compounds of invention against panel of human breast cancer cell lines (MDA-MB-231, MCF7, T47D) and normal breast epithelial (fR2) cells.

MDA-MB-231 cells = experiment: Cell viability (MTT) assay; format: cell-based; settings: Homo sapiens, MDA-MB-231, 48 h, 44 h + 4 h, mean ± SD of three experiments, read-out: IC50 values MDA-MB-231
Protocol: as §1, §2

MCF7 cells = experiment: Cell viability (MTT) assay; format: cell-based; settings: Homo sapiens, MCF7, 48 h, 44 h + 4 h, mean ± SD of three experiments, read-out: IC50 values MCF7
Protocol: as §1, §2

[1] = system: mouse mammary carcinoma (4T1) cells; format: in vivo; settings: 100 mg/kg b.w. i.p., alternate days for two weeks
Protocol: In Vivo Anti-Tumor and Anti-Metastatic Efficacy Studies. To evaluate the antitumor and antimetastatic effect of 5 in vivo, healthy female Balb/c mice (b.w. 18-23 g) were taken. The experimental protocols were approved by the Institutional Animal Ethics Committee, CPCSEA, of Indian Institute of Integrative Medicine, Jammu. The animals were maintained at 22° C. with a 12 h light-dark cycle and free access to feed and water inside the institutional animal house. Proper care was taken to maintain them in a healthy condition and to avoid any risk of possible pathogenic contaminations. For subcutaneous implantation, the mice were randomized into two groups of 5 mice per group and 1.5 million mouse mammary carcinoma (4T1) cells in serum free RPMI media were injected subcutaneously into the mammary fat pad of each mouse. Either 1 week after the tumor cell implantation or when the tumor volume reached ˜150 mm^3, mice were injected intraperitoneally with either normal saline (NS) or parent compound 1 (100 mg/kg, b.w.) or 5 (30 mg/kg, b.w.) in each alternate days for two weeks. Tumor size was recorded on each alternate days post-cell injection and body weights were recorded once per week. Mice were sacrificed on the 15th day of treatment initiation and tumors were incised for its measurement. Metastatic lung nodules were counted using a dissecting microscope. Lungs were then minced into fine pieces, suspended in medium containing collagenase and kept in 37° C. incubator with vigorous shaking for 2 h. The suspension was then filtered with the help of 70 μm cell strainer (BD, USA) to get the single cell suspension. Then, the suspension was serially diluted for 3-4 times in selection medium containing 6-thioguanine, for the selection of 4T1 cells. Each dilution containing the lung cell suspension was then plated into individual petridishes and incubated at 37° C. and 5% CO2 for the growing of 4T1 cell colonies. After 15 days of incubation, cells were washed with PBS, fixed with methanol and stained with 0.2% crystal violet solution for 1 h. Images of the 4T1 colonies were observed, counted and photographed under an inverted microscope at 20× magnification.

Row | SMILES | IC50 (T47D cells) [µM] | IC50 (MDA-MB-231 cells) [µM] | IC50 (MCF7 cells) [µM] | decrease in metastatic lung nodules [1] [%] | inhibition in tumor growth ([1]; vs normal saline) [%] | melting point [°C]
1 | O=c1cc(CO)occ1O [Compound 1, 5-Hydroxy-2-(hydroxymethyl)-4H-pyran-4-one, reference compound] | > 100 | 87.2 ± 1.52 | 94.5 ± 2.68 | 16.7 | 23 | –
2 | CCCC(c1oc(CO)cc(=O)c1O)c1c[nH]c2ccccc12 (stereo not shown) [Compound 2, 2-(1-(1H-indol-3-yl)butyl)-3-hydroxy-6-(hydroxymethyl)-4H-pyran-4-one] | 43 ± 0.144 | 43.25 ± 0.416 | 45.2 ± 0.348 | – | – | 130 to 140
3 | CCCCCC(c1oc(CO)cc(=O)c1O)c1c[nH]c2ccccc12 (stereo not shown) [Compound 3, 2-{1-(1H-indol-3-yl)hexyll}-3-hydroxy-6-(hydroxymethyl)-4H-pyran-4-one] | 43.5 ± 0.203 | 40.6 ± 0.621 | > 100 | – | – | 120 to 130
4 | CCCCCCC(c1oc(CO)cc(=O)c1O)c1c[nH]c2ccccc12 (stereo not shown) [Compound 4, 2-(1-(1H-indol-3-yl)heptyl)-3-hydroxy-6-(hydroxymethyl)-4H-pyran-4-one] | 4.3 ± 0.443 | 3.84 ± 0.055 | 3.93 ± 0.288 | – | – | 115 to 125
5 | CCCCCCCCCC(c1oc(CO)cc(=O)c1O)c1c[nH]c2ccccc12 (stereo not shown) [Compound 6] | > 100 | 40.6 ± 0.621 | > 100 | – | – | 110 to 120
6 | CCCCCCCCCCC(c1oc(CO)cc(=O)c1O)c1c[nH]c2ccccc12 (stereo not shown) [Compound 7, 2-{1-(1H-indol-3-yl)undecyl}-3-hydroxy-6-(hydroxymethyl)-4H-pyran-4-one] | > 100 | 49.5 ± 0.448 | > 100 | – | – | 110 to 120
7 | CCCCCCCCCCCC(c1oc(CO)cc(=O)c1O)c1c[nH]c2ccccc12 (stereo not shown) [Compound 8, 2-{1-(1H-indol-3-yl)dodecyl}-3-hydroxy-6-(hydroxymethyl)-4H-pyran-4-one] | > 100 | 45.2 ± 0.535 | > 100 | – | – | 105 to 115
8 | CCCCCCCCCCCCCCCC(c1oc(CO)cc(=O)c1O)c1c[nH]c2ccccc12 (stereo not shown) [Compound 9, 2-{1-(1H-indol-3-yl)hexadecyl}-3-hydroxy-6-(hydroxymethyl)-4H-pyran-4-one] | > 100 | 45.7 ± 0.195 | > 100 | – | – | 95 to 105
9 | CCCCCCCCCCCCCCCCCC(c1oc(CO)cc(=O)c1O)c1c[nH]c2ccccc12 (stereo not shown) [Compound 10, 2-{1-(1H-indol-3-yl)octadecyl}-3-hydroxy-6-(hydroxymethyl)-4H-pyran-4-one] | > 100 | 48.5 ± 0.341 | > 100 | – | – | 90 to 100
10 | COc1cccc2c1C(=O)c1c(O)c3c(c(O)c1C2=O)C[C@@](O)(C(=O)CO)C[C@@H]3O[C@H]1C[C@H](N)[C@H](O)[C@H](C)O1 [DOXO, doxorubicin, reference compound] | 0.081 ± 0.211 | 0.22 ± 0.185 | 0.085 ± 0.125 | – | – | –
